# What was measured:
# [1] = test system: neonatal rat ventricular myocytes; assay: Hypertrophic growth of isolated neonatal rat ventricular myocytes (cell area); format: cell-based; settings: for FGF23-induced increase in the cell area in the presence of heparin: heparin 0.19 USP/ml, increasing FGF23 concentrations, 48 hours
# Experimental: Neonatal rat ventricular myocytes (NRVMs) were isolated using a kit according to the manufacturer's protocol (LK003300, Worthington Biochemical Corporation), as done previously.^13,16,17 Briefly, hearts from 1- to 3-day-old Sprague Dawley rats (Envigo) were harvested and minced in calcium- and magnesium-free Hanks balanced salt solution and the tissue was digested with 50 μg/ml of trypsin at 4° C. for 20 to 24 hours. Soybean trypsin inhibitor in Hanks balanced salt solution was added, and the tissue was further digested with collagenase (in Leibovitz L-15 medium) under slow rotation (0.14 g) at 37° C. for 45 minutes. Cells were broken up by triturating the suspension 20× with a standard 10-ml plastic serological pipette. Cells were then filtered through a cell strainer (70 μm, BD Falcon). Cells were incubated at room temperature for 20 minutes and spun at 100 g for 5 minutes. The cell pellet was resuspended in plating medium (DMEM Base [10013CV, Corning], 17% M199 [12350039, Gibco], 15% FBS [26140079, Gibco], I× Pen/Strep [15140122, Gibco]). For cell tracings, NRVMs were grown in 24-well plates on glass coverslips (CLS1760012, Chemglass). Slips were precoated with laminin (23017015, Invitrogen) at 10 μg/ml for 1 hour at 37° C. dissolved in PBS. Laminin was aspirated, and cells and medium were added. Cells were counted by a hemocytometer and plated at 4×10^5 cells per well. […] After 48 hours, maintenance medium was replaced, and after another 48 hours, cells were ready for treatment, giving a total of 72 hours of plating medium and 96 hours of maintenance medium before treatment. […]
# The medium was aspirated, and cultured NRVMs were fixed in 2% paraformaldehyde (P-6148, Sigma-Aldrich) and 4% sucrose dissolved in PBS for 5 minutes followed by permeabilization with 1% Triton X-100 dissolved in PBS for 10 minutes. […] The cross-sectional area of myocytes was measured on the basis of α-actinin-positive staining using ImageJ software (v1.53, National Institutes of Health). […]
# [2] = test system: male BALB/c mice; assay: Serial FGF23 and heparin injections in mice, echocardiography and heart weight; format: in vivo, mouse; settings: heparin 125 USP/kg and/or FGF23 40 μg/kg
# Experimental: FGF23 injections were administered following a similar protocol established previously. 13,72,73 Briefly, 12-week-old male BALB/c mice (The Jackson Laboratory) underwent tail vein injections. The day before the experiment, mice underwent echocardiographic analysis, as described below. Mice were anesthetized in 2.5% isoflurane and placed on a heat pad. Each group consisted of 5 mice, and different groups were injected with isotonic saline, heparin, FGF23, or FGF23 and heparin combined. Per injection, 40 μg/kg of FGF23 and 125, 62.5, or 12.5 USP/kg of heparin dissolved in 200 μl of isotonic saline were used, with 8 hours were used between injections for a total of 5 consecutive days. All injections were performed via the lateral tail vein. On the morning of the sixth day, 16 hours after the final tail vein injection, animals underwent echocardiographic analysis and were killed. Middle sections of hearts were cut along the short axis and stored overnight in 4% phosphate-buffered formaldehyde solution. Sections were sent to IDEXX Laboratories for embedding, hematoxylin and eosin (H&E) staining, and sectioning. Sections for wheat germ agglutinin (WGA) labeling were not stained by IDEXX Laboratories.
# Echocardiographic analysis was performed on day 6 of the experiment for FGF23-injected mice by using the Vevo 770 or Vevo 3100 imaging system (FUJIFILM VisualSonics). Animals were anesthetized with 1.5% isoflurane, and normal body temperature was maintained using a rectal probe for temperature monitoring. For analysis, both B- and M-mode images were obtained in the short- and long-axis views. Correct positioning of the transducer was ensured using B-mode imaging in the long-axis view before switching to the short-axis view. Image analysis was performed using Vevo 770 Workstation and Vevo LAB software (FUJIFILM VisualSonics).
substance,measurement,setting,value
heparin [reference compound],FGF23-induced increase in the cell area in the presence of heparin,[1],increased this effect at all FGF23 concentrations
same,FGF23-induced increase in the cell area in the presence of heparin,[1]; listed as heparin,further elevated
same,"NRVM area, treatment by itself","[1]; without FGF23, 48 hours",no effect
same,Endocardial % EF,[2],56.51 ± 4.08%
same,Endocardial % FAC,[2],47.34 ± 2.41%
same,Endocardial Area; s,[2],5.47 ± 0.44 mm²
same,Endocardial major; d,[2],7.23 ± 0.11 mm
same,Epicardial Area: s,[2],18.2 ± 0.63 mm²
same,Epicardial Area; d,[2],22.5 ± 0.78 mm²
same,Heart rate,[2],448.40 ± 4.52 BPM
same,LV Mass; d,[2],111.90 ± 5.23 mg
same,T; d,[2],0.88 ± 0.03 mm

# From US20240384250A1, “FIBROBLAST GROWTH FACTOR 23 MODULATING COMPOUNDS” (THE UAB RESEARCH FOUNDATION, priority 2021, published 2024)
